Assay results reported in patent publication US6723522B1, “Sodium bicarbonate cotransporter protein” (Takeda Chemical Industries, Ltd., priority 1998, dated 2004).

System: human heart-derived protein hNBC2b (Na+—HCO3− cotransporter)
Assay: Analysis of functions of human heart-derived protein by intracellular pH measurement (BCECF, ammonium pre-pulse) in hNBC2b-33/CHO-K1 cell
Assay type: cell-based
Settings: DIDS final concentration 100 μM, 1 mM amyloride present
Procedure: Data is expressed as mean±standard error. Comparison between 2 groups was carried out by T test and p<0.001 was determined to be significant. hNBC2b-33/CHO-K1 cell which had been cultured in Ham F12 medium (manufactured by Nissuiseiyaku) containing 10% bovine fetal serum (manufactured by Life Technologies, Inc.; USA) and wild type CHO-K1 cell as a control were seeded on a 96-well white plate to 2×10^4 cells/well, and cultured in a carbonic gas incubator at 37° C. for 48 hours. […] The solution was aspiration-removed, washed with 150 μl of A solution, the solution was aspiration-removed, 150 μl of A solution containing 1 mM amyloride (manufactured by Sigma) was added, and variation in an intracellular pH was measured with a fluorescent drug screening system FDSS 2000 (Hamamatsu Photonics). 200 μl of C solution (115 mM sodium chloride, 25 mM potassium chloride, 25 mM sodium bicarbonate, 0.8 mM dipotassium phosphate, 0.2 mM monopotassium phosphate, 1 mM potassium chloride, 1 mM magnesium chloride, 1 mM amyloride (manufactured by Sigma), 10 mM HEPES, pH 7.4) was added, and an increased amount of an intracellular pH increased in 1 minute (a ratio of fluorescent values at 450 nm and 490 nm (450 nm/490 nm)) was calculated. […]

`O=S(=O)(O)c1cc(N=C=S)ccc1C=Cc1ccc(N=C=S)cc1S(=O)(=O)O` [DIDS, 4,4′-diisothiocyanatostilbene-2,2′-disulfonic acid] was tested, and the “increase in an intracellular pH after addition of C solution containing sodium ions and bicarbonate ions (ratio of fluorescent values 450 nm/490 nm)” value was “suppressed”.
